According to US11952593B2, “Detection and treatment of daughter number variations in cancer cells” (PharmacoGenetics Limited, priority 2020, dated 2024):

Test system: A549 cells
Test: Cell cytotoxicity assay (crystal violet), A549
Format: cell-based, human
Conditions: A549, 24 hours, 50 μM wogonin, 20 μM 5-FU, absorbance 600 nm
Procedure: Cell cytotoxicity assay was carried out on 96 well plate, where cells were treated with neutral, acidic, alkaline pH and anti-cancer drug wogonin or 5-FU. After 24 hours, crystal violet (8% in methanol), and dye absorbed by live cells was extracted with sodium citrate (0.1 M) in 50% ethanol. Absorbance was read at 600 nm.
HepG2, HeLa and A549 cells were grown to a monolayer density of 1×10^3 per well in neutral growth medium overnight. There upon the cells were changed to various treatment media at neutral, acidic and alkaline pHs, neutral medium containing 50 μM wogonin and neutral medium containing 20 μM 5-FU, for 24 hours at 37° C. in humidified 5% CO2 atmosphere. Following the treatment, floating cells were removed, and the attached cells were stained with crystal violet (8% in methanol); the dye absorbed by the live cells was extracted with sodium citrate (0.1 M) in 50% ethanol [1 25], and quantitated by absorbance at 600 nm.

Row | SMILES | Cell death as compared to neutral pH
1 | COc1c(O)cc(O)c2c(=O)cc(-c3ccccc3)oc12 [Wogonin, wogonin] | increased cell death
2 | O=c1[nH]cc(F)c(=O)[nH]1 [5-FU, 5-flurouracil] | increased cell death
